# Results taken from patent US9326516B2, “Molecules having certain pesticidal utilities, and intermediates, compositions, and processes related thereto” (Dow AgroSciences LLC, priority 2014, dated 2016).
# How the values were obtained:
# Format in all cases: in vivo
# [1] = tested on: Green Peach Aphid (Myzus persicae, MYZUPE); test: Bioassay on Green Peach Aphid (GPA), foliar spray on cabbage seedlings; details: 72 h, 200 ppm spray on infested cabbage seedlings, graded after three days, Abbott corrected % control, read-out: GPA % Control (or Mortality) rating
# Procedure: Certain molecules disclosed in this document were tested against GPA using procedures described in the following example. In the reporting of the results, the “GPA Rating Table” was used (See Table Section).
# Cabbage seedlings grown in 3-inch pots, with 2-3 small (3-5 cm) true leaves, were used as test substrate. The seedlings were infested with 20-50 GPA (wingless adult and nymph stages) one day prior to chemical application. Four pots with individual seedlings were used for each treatment. Test compounds (2 mg) were dissolved in 2 mL of acetone/methanol (1:1) solvent, forming stock solutions of 1000 ppm test compound. The stock solutions were diluted 5× with 0.025% Tween 20 in water to obtain the solution at 200 ppm test compound. A hand-held aspirator-type sprayer was used for spraying a solution to both sides of […] leaves until runoff. Reference plants (solvent check) were sprayed with the diluent only containing 20% by volume of acetone/methanol (1:1) solvent. Treated plants were held in a holding room for three days at approximately 25° C. and ambient relative humidity (RH) prior to grading. Evaluation was conducted by counting the number of live aphids per plant under a microscope. Percent Control was measured by using Abbott's correction formula (W. S. Abbott, “A Method of Computing the Effectiveness of an Insecticide” J. Econ. Entomol. 18 (1925), pp. 265-267) as follows. Corrected % Control=100*(X−Y)/X where X=No. of live aphids on solvent check plants and Y=No. of live aphids on treated plants
# [2] = tested on: Beet Armyworm (Spodoptera exigua, LAPHEG); test: Bioassay on Beet Armyworm (BAW), 128-well diet tray assay; details: 168 h, 50 μg/cm^2 on artificial diet, second instar BAW larvae, 25° C., five to seven days, average of eight wells, read-out: BAW % Control (or Mortality) rating
# Procedure: (§1) Certain molecules disclosed in this document were tested against BAW and CEW using procedures described in the following examples. In the reporting of the results, the “BAW & CL Rating Table” was used (See Table Section).
# Bioassays on BAW were conducted using a 128-well diet tray assay. one to five second instar BAW larvae were placed in each well (3 mL) of the diet tray that had been previously filled with 1 mL of artificial diet to which 50 μg/cm^2 of the test compound (dissolved in 50 μL of 90:10 acetone-water mixture) had been applied (to each of eight wells) and then allowed to dry. Trays were covered with a clear self-adhesive cover and held at 25° C., 14:10 light-dark for five to seven days. Percent mortality was recorded for the larvae in each well; activity in the eight wells was then averaged. The results are indicated in the table entitled “Table ABC: Biological Results” (See Table Section).
# [3] = tested on: Cabbage Looper (Trichoplusia ni, TRIPNI); test: Bioassay on Cabbage Looper (CL), 128-well diet tray assay; details: 168 h, 50 μg/cm^2 on artificial diet, second instar CL larvae, 25° C., five to seven days, average of eight wells, read-out: CL % Control (or Mortality) rating
# Procedure: as §1
# Bioassays on CL were conducted using a 128-well diet tray assay, one to five second instar CL larvae were placed in each well (3 mL) of the diet tray that had been previously filled with 1 mL of artificial diet to which 50 μg/cm^2 of the test compound (dissolved in 50 μL of 90:10 acetone-water mixture) had been applied (to each of eight wells) and then allowed to dry. Trays were covered with a clear self-adhesive cover and held at 25° C., 14:10 light-dark for five to seven days. Percent mortality was recorded for the larvae in each well; activity in the eight wells was then averaged. The results are indicated in the table entitled “Table ABC: Biological Results” (See Table Section).
Compound,mortality at 200 ppm [1],mortality at 50 µg/cm2 [2],mortality at 50 µg/cm2 [3]
"FC(F)(F)Oc1ccc(-n2cnc(-c3ccc(NC4=NC(c5ccccc5)CO4)cc3)n2)cc1 (stereo not drawn) [Compound F7, 4-Phenyl-N-(4-(1-(4-(trifluoromethoxy)phenyl)-1H-1,2,4-triazol-3-yl)phenyl)-4,5-dihydrooxazol-2-amine]",80 to 100%,50 to 100%,50 to 100%
"FC(F)(F)Oc1ccc(C2COC(Nc3ccc(-c4ncn(-c5ccc(C(F)(F)F)cc5)n4)cc3)=N2)cc1 (stereo not drawn) [Compound F17, 4-(4-(Trifluoromethoxy)phenyl)-N-(4-(1-(4-(trifluoromethyl)phenyl)-1H-1,2,4-triazol-3-yl)phenyl)-4,5-dihydrooxazol-2-amine]",0%,50 to 100%,50 to 100%
"FC(F)(F)Oc1ccc(C2CSC(Nc3ccc(-c4ncn(-c5ccc(C(F)(F)F)cc5)n4)cc3)=N2)cc1 (stereo not drawn) [Compound F39, 4-(4-(Trifluoromethoxy)phenyl)-N-(4-(1-(4-(trifluoromethyl)phenyl)-1H-1,2,4-triazol-3-yl)phenyl)-4,5-dihydrothiazol-2-amine]",0%,0%,0%
"Cc1ccc(C2CSC(Nc3ccc(-c4ncn(-c5ccc(C(F)(F)F)cc5)n4)cc3)=N2)cc1 (stereo not drawn) [Compound F33, 4-(p-Tolyl)-N-(4-(1-(4-(trifluoromethyl)phenyl)-1H-1,2,4-triazol-3-yl)phenyl)-4,5-dihydrothiazol-2-amine]",0 to 80%,0%,0%
"Fc1ccc(C2CSC(Nc3ccc(-c4ncn(-c5ccc(OC(F)(F)F)cc5)n4)cc3)=N2)cc1 (stereo not drawn) [Compound F24, 4-(4-Fluorophenyl)-N-(4-(1-(4-(trifluoromethoxy)phenyl)-1H-1,2,4-triazol-3-yl)phenyl)-4,5-dihydrothiazol-2-amine]",0%,0 to 50%,0 to 50%
"FC(F)(F)c1ccc(-n2cnc(-c3ccc(NC4=NC(c5ccccc5)CO4)cc3)n2)cc1 (stereo not drawn) [Compound F14, 4-Phenyl-N-(4-(1-(4-(trifluoromethyl)phenyl)-1H-1,2,4-triazol-3-yl)phenyl)-4,5-dihydrooxazol-2-amine]",0%,0%,0%
"COc1ccc(C2COC(Nc3ccc(-c4ncn(-c5ccc(C(F)(F)F)cc5)n4)cc3)=N2)cc1 (stereo not drawn) [Compound F12, 4-(4-Methoxyphenyl)-N-(4-(1-(4-(trifluoromethyl)phenyl)-1H-1,2,4-triazol-3-yl)phenyl)-4,5-dihydrooxazol-2-amine]",0%,0%,0%
FC(F)(F)c1ccc(-n2cnc(-c3ccc(NC4=NC(c5ccc(Br)cc5)CS4)cc3)n2)cc1 (stereo not drawn) [Compound F37],0%,0%,0%
"FC(F)(F)Oc1ccc(-n2cnc(-c3ccc(NC4=NC(c5ccccc5)CS4)cc3)n2)cc1 (stereo not drawn) [Compound F23, 4-Phenyl-N-(4-(1-(4-(trifluoromethoxy)phenyl)-1H-1,2,4-triazol-3-yl)phenyl)-4,5-dihydrothiazol-2-amine]",0%,0%,0%
"COc1ccc(C2CSC(Nc3ccc(-c4ncn(-c5ccc(OC(F)(F)F)cc5)n4)cc3)=N2)cc1 (stereo not drawn) [Compound F21, 4-(4-Methoxyphenyl)-N-(4-(1-(4-(trifluoromethoxy)phenyl)-1H-1,2,4-triazol-3-yl)phenyl)-4,5-dihydrothiazol-2-amine]",0%,50 to 100%,0%
"Cc1ccc(C2COC(Nc3ccc(-c4ncn(-c5ccc(C(F)(F)F)cc5)n4)cc3)=N2)cc1 (stereo not drawn) [Compound F13, 4-(p-Tolyl)-N-(4-(1-(4-(trifluoromethyl)phenyl)-1H-1,2,4-triazol-3-yl)phenyl)-4,5-dihydrooxazol-2-amine]",0%,0%,0%
"FC(F)(F)c1ccc(-n2cnc(-c3ccc(NC4=NC(c5ccc(Cl)cc5)CS4)cc3)n2)cc1 (stereo not drawn) [Compound F36, 4-(4-Chlorophenyl)-N-(4-(1-(4-(trifluoromethyl)phenyl)-1H-1,2,4-triazol-3-yl)phenyl)-4,5-dihydrothiazol-2-amine]",0%,0%,50 to 100%
"FC(F)(F)Oc1ccc(-n2cnc(-c3ccc(NC4=NC(c5ccccc5Cl)CS4)cc3)n2)cc1 (stereo not drawn) [Compound F30, 4-(2-Chlorophenyl)-N-(4-(1-(4-(trifluoromethoxy)phenyl)-1H-1,2,4-triazol-3-yl)phenyl)-4,5-dihydrothiazol-2-amine]",0%,50 to 100%,50 to 100%
"COc1ccc(C2COC(Nc3ccc(-c4ncn(-c5ccc(OC(F)(F)F)cc5)n4)cc3)=N2)cc1 (stereo not drawn) [Compound F6, 4-(4-Methoxyphenyl)-N-(4-(1-(4-(trifluoromethoxy)phenyl)-1H-1,2,4-triazol-3-yl)phenyl)-4,5-dihydrooxazol-2-amine]",0%,50 to 100%,50 to 100%
"FC(F)(F)Oc1ccc(-n2cnc(-c3ccc(NC4=NC(c5ccc(Cl)cc5)CS4)cc3)n2)cc1 (stereo not drawn) [Compound F25, 4-(4-Chlorophenyl)-N-(4-(1-(4-(trifluoromethoxy)phenyl)-1H-1,2,4-triazol-3-yl)phenyl)-4,5-dihydrothiazol-2-amine]",0%,0%,0%
"FC(F)(F)Oc1ccc(-n2cnc(-c3ccc(NC4=NC(c5cccc(Cl)c5)CS4)cc3)n2)cc1 (stereo not drawn) [Compound F29, 4-(3-Chlorophenyl)-N-(4-(1-(4-(trifluoromethoxy)phenyl)-1H-1,2,4-triazol-3-yl)phenyl)-4,5-dihydrothiazol-2-amine]",0%,50 to 100%,50 to 100%
"Fc1ccc(C2COC(Nc3ccc(-c4ncn(-c5ccc(OC(F)(F)F)cc5)n4)cc3)=N2)cc1 (stereo not drawn) [Compound F8, 4-(4-Fluorophenyl)-N-(4-(1-(4-(trifluoromethoxy)phenyl)-1H-1,2,4-triazol-3-yl)phenyl)-4,5-dihydrooxazol-2-amine]",0 to 80%,50 to 100%,50 to 100%
"Cc1ccc(C2CSC(Nc3ccc(-c4ncn(-c5ccc(OC(F)(F)F)cc5)n4)cc3)=N2)cc1 (stereo not drawn) [Compound F22, 4-(p-Tolyl)-N-(4-(1-(4-(trifluoromethoxy)phenyl)-1H-1,2,4-triazol-3-yl)phenyl)-4,5-dihydrothiazol-2-amine]",0%,0%,0%
"COc1ccc(C2CSC(Nc3ccc(-c4ncn(-c5ccc(C(F)(F)F)cc5)n4)cc3)=N2)cc1 (stereo not drawn) [Compound F32, 4-(4-Methoxyphenyl)-N-(4-(1-(4-(trifluoromethyl)phenyl)-1H-1,2,4-triazol-3-yl)phenyl)-4,5-dihydrothiazol-2-amine]",0%,0%,0%
"Fc1ccc(C2COC(Nc3ccc(-c4ncn(-c5ccc(C(F)(F)F)cc5)n4)cc3)=N2)cc1 (stereo not drawn) [Compound F15, 4-(4-Fluorophenyl)-N-(4-(1-(4-(trifluoromethyl)phenyl)-1H-1,2,4-triazol-3-yl)phenyl)-4,5-dihydrooxazol-2-amine]",0%,50 to 100%,50 to 100%
